Laboratory results taken from a melting point compilation (Tetko et al.; mined from patent text by program, amines drawn as free bases though some values may be those of a salt).

SMILES | melting point [°C]
CC(=O)N1CC(=O)NC(=Cc2ccc(OCc3ccccc3)cn2)C1=O | 189 to 191
NOCC(O)CN1CCOCC1 (centres undefined) | 83 to 85
CCCCCCCc1cnc(-c2ccc(OCC(F)CCCCCC)c(F)c2F)nc1 (centres undefined) | 56
NC(=O)Cc1ccc2c(c1)sc1ccc(Cl)cc12 | 92 to 99
CC1(C)C(=O)Nc2ccc(C3=NNC(=O)C4CCC34)cc21 (centres undefined) | 315 to 317
CCCOc1cc(C(=O)O)cc(N)c1Cc1ccccc1 | 161 to 162
CCC(=NO)c1ccccc1O | 88 to 90
COc1ccc2nccc(NC(=O)N3CCN(CC(O)c4ccc5c(c4)NC(=O)CO5)CC3)c2n1 (centres undefined) | 231 to 233
COC(=O)c1cc(-n2c(=O)c3c(n(C)c2=O)CCC3)ccc1Cl | 164 to 166
CC(C)C[C@H](NC(=O)OCC1CC=CCC1)C(=O)N[C@@H](Cc1ccccc1)C(=O)CSCc1ccco1 (some centres undefined) | 85 to 87
O=C1NC(=O)C(Cc2ccc(OCc3cn4ccccc4n3)cc2)S1 (centres undefined) | 197 to 202
CNC(=O)NC1CC(C)(C)Cc2cc(C)cc(C)c21 (centres undefined) | 196 to 197
COc1cc(Cc2cnc(N)nc2N)c(Cc2cnc(N)nc2N)cc1OC | 280
CC(C)c1[nH]nc2c1C(=O)c1c(NC(N)=O)cccc1-2 | > 250
CCC1(CC)OC(=O)Nc2ccc(-c3cccc([N+](=O)[O-])c3)cc21 | 193 to 194
CCOC(=O)C=Cc1cc([N+](=O)[O-])ccc1OCCCc1ccccc1 | 117 to 118
COC(=O)C(C)(C)c1cn2nc(Cl)ccc2n1 | 92 to 93
Cc1cc(Br)cnc1CCCCNc1ncc(Cc2ccc3c(c2)OCO3)c(=O)[nH]1 | 145 to 146
CC(C)(C)c1ccc(Cn2cc(C(=O)C(=O)O)c3cc(-c4ccc(Cl)cc4)ccc32)cc1 | 183 to 184
CCOC(=O)C(=O)Nc1cccc(S(C)=O)c1C(N)=O (centres undefined) | 164 to 166

SMILES | melting point [°C]
CCOC(=O)[C@H](CSCc1ccccc1)NC(=O)C(C)(C)NC(=O)[C@@H](S)C(C)C | 87 to 91
CNc1coc2cc(NS(C)(=O)=O)c(Oc3ccccc3)cc2c1=O | 192 to 193
CCCCCCC(C)(C)c1ccc([C@@H]2CCC[C@H](O)C2)c(O)c1 (relative stereo) | 109 to 110
Cc1coc(NC(=S)Nc2ccc(Cl)cc2C)n1 | 214
CCCOC(=NC#N)c1ccc(N)nc1 | 150
COc1cc2cc(C3CCCCC3)sc2c(Cl)c1Cl | 60
CCOC(=O)Cc1nc2ccccc2n1-c1ccccc1 | 87 to 89
NC(=O)c1ccc(N2CCOCC2)cc1 | 220 to 221
O=Cc1ccc(-c2nnn[nH]2)cc1 | 180 to 182
c1cc(N2CCCCC2)ccc1OC12CC3CC(CC(C3)C1)C2 | 72 to 73.5
CC1(C)C(=O)N(Cc2ccccc2Cl)OC1O (centres undefined) | 122 to 126
N#Cc1ccc(C(=C2CCCC2)c2ncc[nH]2)cc1 | 108 to 110
O/N=C(/c1ccc(Cl)cc1)C1CC1 | 101 to 103
COC1OCC[C@@H]1NC(=O)[C@H](CC1CCCCC1)NC(=O)CNC(=O)COc1ccc2c(c1)Nc1ccccc1S2 (some centres undefined) | 179 to 180
CC(=O)Oc1cc2oc(=O)cc(CSc3ccccc3C(=O)O)c2cc1OC(C)=O | 216 to 218
CC(C)(C)c1ccc(S(=O)(=O)Nc2ncnc(Cl)c2Oc2ccccc2)cc1 | 143 to 144
O=C1NCCC[C@@H]1NS(=O)(=O)c1cc(F)ccc1F | 183 to 185
CC(C)(O)CC(O)=C(C#N)CC(=O)Nc1ccccc1 | 103
Oc1cccc(Oc2ccc(Cl)nn2)c1 | 185 to 187
CC(C)(C)c1cc(-c2csc(CO)n2)cc(C(C)(C)C)c1O | 126 to 127

SMILES | melting point [°C]
CCCc1nc2c(N)nc3cc(OCc4c(C)noc4C)ccc3c2s1 | 178 to 180
CCOC(=O)C1=C(COCCNS(N)(=O)=O)NC(C)=C(C(=O)OC)C1c1ccccc1Cl (centres undefined) | 150 to 152
Nc1ccccc1C(=O)C=Cc1ccncc1 | 168
CCC(CC)NC1=NS(=O)(=O)c2ccc(Cl)cc2N1 | 224 to 226
CC(C)N1CN(C(=O)c2c(F)cccc2F)C(=O)N(c2ccc(Cl)cc2)C1 | 130 to 131
Cc1ncc(I)nc1C | 51 to 54
COC=C1CN(C(c2ccccc2)c2ccccc2)C1 | 56 to 58
COC(=O)C(CCn1c(C(=O)c2ccccc2)cc(Br)c1Br)C(=O)OC | 96 to 96.5
COc1ccc(CN2C(=O)[C@@H](NC(=O)Cc3ccccc3)[C@H]2COS(=O)(=O)c2ccc(C)cc2)c(OC)c1 (relative stereo) | 109 to 110
COc1ccc(C(=O)c2ccc(C)cc2)cc1C | 73 to 75
CCC1(CC)C(=O)ON(C(=O)c2cc(OC)c(OC)c(OC)c2)C1=O | 103 to 106
CC(C)c1nn(-c2c(Cl)cc(C(F)(F)F)cc2Cl)c(Cl)c1-c1nc(C#N)c(C#N)[nH]1 | 96 to 99
N/C(=C1/Sc2ccc(Cl)cc2C1=O)c1ccccc1Cl | 199 to 201
Cc1cccc(S(=O)(=O)n2ccnc2)c1C#N | 93 to 95
OCC1OC(n2c(I)nc3cc(Cl)c(Cl)cc32)C(O)C1O (centres undefined) | 180 to 182
COc1ccc(Cl)cc1C1=NCCO1 | 100 to 101
CN1OC(CNc2ccccc2)CC1(Cn1ccnc1)c1ccc(Cl)cc1 (centres undefined) | 159 to 160
COc1ccccc1SC1CC(=O)N1 (centres undefined) | 103 to 105
O=C1NC(=O)C(=Cc2ccc(OC3CCN(c4ccccn4)CC3)cc2)S1 | 218 to 220

Next, values leading:

melting point [°C] | SMILES
101 to 105 | COc1cc(/C=C/C=C/C(=O)NCCN2CCC(c3c[nH]c4ccccc34)CC2)ccc1OC(C)=O
227 to 228 | COc1ccccc1S(=O)(=O)N(C)c1cccc2cc(C3=NCC(CC(N)=O)S3)[nH]c12 (centres undefined)
203 | CC(C)(N)c1ccc(-c2nc(Nc3ccc(F)cc3F)ncc2C#N)cc1
161 to 163 | O=C(NCCCCN1CCN(c2csc3cc(F)ccc23)CC1)c1ccc(F)cc1
238 to 241 | CCOC(=O)c1cc(C)c2c(c1)CC(=O)N2
156 to 158 | Clc1ccc2c(c1)C(c1ccccc1)=Nc1cccnc1N2
199 to 200 | Brc1ccc2c(c1)oc1cc(Br)ccc12
191 to 192 | O=C(N[C@H](Cc1ccc(CC(F)(F)C(F)(F)F)cc1)[C@@H](O)c1cccc(Cl)c1)c1ccc(F)c2ccccc12 (racemic)
146 to 148 | CCOP(=O)(/C=C/c1cn(-c2ccccc2)nc1OCc1ccc(OCc2nc(-c3ccc(C(N)=O)cc3)oc2C)c(OC)c1)OCC
50 to 52 | CCC1Cc2ccc(C)cc2C1=O (centres undefined)
211 to 212 | Cc1nc(/C=C/c2cn(-c3ccccc3)nc2O)cs1
230 to 232 | CC(C)(C)c1nc(-c2n[nH]c(=O)o2)nc(C(C)(C)C)c1O
> 350 | Oc1cc(-c2ccccc2)nc2ccc(Cl)cc12
79 to 80 | N#Cc1ccc(C(=C2CCCCCC2)c2nc[nH]n2)cc1
213 | COc1ccccc1C1(O)CCN(C2CCN(C(=O)c3cc(C)cc(C)c3)C(Cc3ccccc3)C2)CC1 (centres undefined)
190 to 195 | O=C(C=Cc1cccc(O)c1)C=Cc1cccc(O)c1
134 to 142 | CCOC(=O)c1cccc(C)c1S(=O)(=O)NC(=O)Nc1nc(OCC(F)(F)F)nc(N(C)C)n1
132 | O=C(NCC1(c2ccccc2)CCCC1)N1CCC(Sc2ccc(CCNC[C@H](O)COc3ccc(O)cc3)cc2)CC1
141 to 143 | COC(=O)[C@H](Cc1ccc(CC(=O)O)cc1)NC(=O)OC(C)(C)C
198 to 199 | CCC(=O)N(C(=O)CC)c1cc2c(cc1C)N(C(=O)CC)c1ccc(N(C)C)cc1N2C(=O)CC
85 to 86 | COC(=O)C=Cc1cccc2cc[nH]c12
140 to 142 | CC(C)Cn1c(=O)n(C)c(=O)c2c(I)n(Cc3cccc4ccccc34)cc21
214 to 216 | CONS(=O)(=O)c1ccc(C(=O)C=Cc2cc(-c3cc4ccccc4n3C)c(OC)cc2OC)cc1

melting point [°C] | SMILES
191 to 192 | N#CC(C#N)=CN(N=C(C#N)C#N)c1ccc(Br)cc1
55.7 to 56.5 | CCCCCCCCCCCCCCOc1cccc(CBr)c1CBr
156 | CCc1nc(=O)n(C)c2sccc12
87 to 90 | Cc1cc(Cl)c2c(n1)C(O)CCC2 (centres undefined)
75 to 77 | CCCCCCC(=N)NC(=S)Nc1ccccc1Cl
162 to 164 | NS(=O)(=O)c1ccc(NC(=O)CCl)c(Cl)c1
208 to 209 | CC(C)CCOc1ccc2sc(C(=O)O)cc(=O)c2c1
197 | N#Cc1cc2c(=O)c3ccccc3ccn2c1
240 | Cc1ccc2c(c1)c1cc(-c3ccc(Cl)cc3Cl)c(=O)n(C)c1n2CCO
262 to 264 | CC1(C)Oc2c(ccc3oc(C(=O)O)cc(=O)c23)-c2cc(Cl)ccc21
115 to 118 | COCOc1ccc(C(=O)COc2cc(OCc3ccccc3)ccc2CO)c(OCc2ccccc2)c1
259 to 263 | O=C(Nc1ccc(Cl)c2c(-n3ccnc3)ccnc12)c1c(Cl)cccc1Cl
63 to 70 | Cc1cc(SC2=C(O)CC(CCc3ccsc3)(C(C)C)OC2=O)c(C(C)(C)C)cc1CO (centres undefined)
290 | Cc1ccc2c(c1)C(=O)c1ccc(C#N)cc1S2(=O)=O
83 to 85 | CC1C(=O)CCS1(=O)=O (centres undefined)
248 to 250 | O=c1c2c(CCc3ccccc3)n[nH]c2c2cccnc2n1-c1ccccc1
190 to 194 | N=C(Nc1ccc2c(c1)CN1CCOCC1C2)c1cccs1 (centres undefined)
210 to 212 | CC(C)(C)OC(=O)c1nc(-c2ccc(Cl)cc2Cl)n(-c2ccc(Cl)cc2)c1C#N
74 to 75 | Cc1cccc(C(=O)CC(=O)C2CCCC2)c1O
161 to 163 | CCCC(=O)c1cnc2c(OC)cccc2c1Nc1ccc(OC)cc1C
145 | CCCS(=O)(=O)Nc1ccc(C(=O)c2nc(-c3cccc(C(=O)O)c3)c3ccccn23)cc1OC
240 to 242 | Cc1ccc2sc(S(=O)(=O)c3cn[nH]c(=O)c3)cc2c1
